System: Sprague-Dawley rats
Assay: Clinical chemistry
Assay type: in vivo, Rattus norvegicus
Design: key to Cholesterol, Dose response / Triglyserides, Dose response / Glucose, Dose response / Albumin, Dose response / K, Dose response / Total bilirubin, Dose response: D: significant dose response (for results, see Table 2); T: significant trend
Conditions: for Alkaline phosphatase, CED / Alkaline phosphatase, CED-L / Chlolesterol, CED / Chlolesterol, CED-L / Glucose, CED / Glucose, CED-L / Potassium, CED / Potassium, CED-L / Total Bilirubin, CED / Total Bilirubin, CED-L / Albumin, CED / Albumin, CED-L / Total protein, CED / Total protein, CED-L / Triglycerides, CED / Triglycerides, CED-L: total dose based
Experimental: Spectrophotometric methods were used for the determination of serum total calcium, cholesterol, creatinine, glucose, triglycerides and urea. Serum sodium, potassium and chloride concentrations were measured directly by ion selective electrodes. The analyses were performed by a clinical chemistry analyzer (Konelab 30i, ThermoFisher Scientific, Vantaa, Finland). Plasma lactate dehydrogenase (LD) activity was measured according to the recommendations of the International Federation of Clinical Chemistry (IFCC 1994/I) using Konelab 60i clinical chemistry analyzer. Methods and results for liver related parameters (serum alanine aminotransferase [ALT] activity, alkaline phosphatase [ALP] activity, albumin, total protein and total bilirubin are reported separately.
Data were also analyzed using the BMD method, which is based on dose-response modeling of the full data set using a nested family of exponential and Hill models. The analyses were done on data of males and females combined, using sex as a covariate. […] In that case, different Critical Effect Doses (CEDs) and CEDs at the lowest bound of the confidence interval (CED-L) were generated for each sex. If no difference between sexes is detected, a CED and CED-Ls for the combined data is generated. However, this was also done if the curve fits are close, and separate analyses for males and females were then performed manually. CEDs and CED-Ls were calculated at the predefined Critical Effect Size (CES) of 5% (EFSA standard) or 10%.

[1] = females, total dose 1700 mg/kg bw
[2] = females, adipose tissue concentration based
[3] = males, total dose 0-1700 mg/kg bw
[4] = males, total dose 1000 mg/kg bw
[5] = males, total dose 1700 mg/kg bw
[6] = males, adipose tissue concentration based

## Clc1cc(Cl)c(-c2cc(Cl)c(Cl)c(Cl)c2Cl)cc1Cl [PCB 180, 2,2′,3′,4,4′,5,5′-heptachlorobiphenyl]
[1]
  Creatinine: 52.5 µmol/L
  Glucose: 12.4 mmol/L
  K: 5.30 mmol/L
  Na: 143.2 mmol/L
  Total Ca: 3.49 mmol/L
  Total bilirubin: 1.37 µmol/L
  Triglyserides: 0.88 mmol/L
  Urea: 10.0 mmol/L
females, CES 5%
  Alkaline phosphatase, CED: 67.6 mg/kg bw
  Alkaline phosphatase, CED-L: 30.1 mg/kg bw
  Chlolesterol, CED: 192 mg/kg bw
  Chlolesterol, CED-L: 167 mg/kg bw
  Glucose, CED: 677 mg/kg bw
  Glucose, CED-L: 408 mg/kg bw
  Potassium, CED: 1210 mg/kg bw
  Potassium, CED-L: 786 mg/kg bw
  Total Bilirubin, CED: 4.12 mg/kg bw
  Total Bilirubin, CED-L: 0.67 mg/kg bw
females, CES 10%
  Alkaline phosphatase, CED: 154 mg/kg bw
  Alkaline phosphatase, CED-L: 68.5 mg/kg bw
  Chlolesterol, CED: 375 mg/kg bw
  Chlolesterol, CED-L: 326 mg/kg bw
  Glucose, CED: 1390 mg/kg bw
  Glucose, CED-L: 839 mg/kg bw
  Potassium, CED: 2490 mg/kg bw
  Potassium, CED-L: 1614 mg/kg bw
  Total Bilirubin, CED: 10.3 mg/kg bw
  Total Bilirubin, CED-L: 1.63 mg/kg bw
[2]
  Serum ALP activity, CED: 308 µg/g lipid
  Serum cholesterol, CED: 640 µg/g lipid
[3]
  Albumin, Dose response: T
  Cholesterol, Dose response: T
  Glucose, Dose response: T
  Triglyserides, Dose response: T
males, total dose 3 mg/kg bw
  Albumin: 32.6 g/L
  Cholesterol: 2.72 mmol/L
  Cl: 96.9 mmol/L
  Creatinine: 54.2 µmol/L
  Glucose: 18.9 mmol/L
  K: 5.76 mmol/L
  Na: 143.1 mmol/L
  Total Ca: 3.43 mmol/L
  Total bilirubin: 2.02 µmol/L
  Triglyserides: 0.84 mmol/L
  Urea: 9.0 mmol/L
males, total dose 10 mg/kg bw
  Albumin: 32.9 g/L
  Cholesterol: 2.84 mmol/L
  Cl: 96.8 mmol/L
  Creatinine: 51.5 µmol/L
  Glucose: 14.9 mmol/L
  K: 6.12 mmol/L
  Na: 143.0 mmol/L
  Total Ca: 3.41 mmol/L
  Total bilirubin: 1.58 µmol/L
  Triglyserides: 0.88 mmol/L
  Urea: 8.2 mmol/L
males, total dose 30 mg/kg bw
  Albumin: 32.8 g/L
  Cholesterol: 2.74 mmol/L
  Cl: 96.0 mmol/L
  Creatinine: 53.8 µmol/L
  Glucose: 18.6 mmol/L
  K: 5.93 mmol/L
  Na: 142.9 mmol/L
  Total Ca: 3.44 mmol/L
  Total bilirubin: 1.46 µmol/L
  Triglyserides: 0.65 mmol/L
  Urea: 9.3 mmol/L
males, total dose 100 mg/kg bw
  Albumin: 33.1 g/L
  Cholesterol: 3.56 mmol/L
  Cl: 96.3 mmol/L
  Creatinine: 53.4 µmol/L
  Glucose: 17.8 mmol/L
  K: 5.74 mmol/L
  Na: 143.0 mmol/L
  Total Ca: 3.58 mmol/L
  Total bilirubin: 1.54 µmol/L
  Triglyserides: 0.34 mmol/L
  Urea: 9.2 mmol/L
males, total dose 300 mg/kg bw
  Albumin: 32.5 g/L
  Cholesterol: 3.44 mmol/L
  Cl: 96.3 mmol/L
  Creatinine: 52.6 µmol/L
  Glucose: 17.7 mmol/L
  K: 5.73 mmol/L
  Na: 142.7 mmol/L
  Total Ca: 3.46 mmol/L
  Total bilirubin: 1.73 µmol/L
  Triglyserides: 0.36 mmol/L
  Urea: 9.0 mmol/L
[4]
  Albumin: 34.2 g/L
  Cholesterol: 4.35 mmol/L
  Cl: 95.7 mmol/L
  Creatinine: 53.8 µmol/L
  Glucose: 11.8 mmol/L
  K: 6.12 mmol/L
  Na: 142.6 mmol/L
  Total Ca: 3.45 mmol/L
  Total bilirubin: 1.84 µmol/L
  Triglyserides: 0.32 mmol/L
  Urea: 9.9 mmol/L
[5]
  Albumin: 34.4 g/L
  Cholesterol: 5.15 mmol/L
  Cl: 97.7 mmol/L
  Creatinine: 55.4 µmol/L
  Glucose: 12.7 mmol/L
  K: 5.89 mmol/L
  Na: 143.4 mmol/L
  Total Ca: 3.53 mmol/L
  Total bilirubin: 1.87 µmol/L
  Triglyserides: 0.44 mmol/L
  Urea: 9.1 mmol/L
males, CES 5%
  Albumin, CED: 1550 mg/kg bw
  Albumin, CED-L: 1090 mg/kg bw
  Alkaline phosphatase, CED: 542 mg/kg bw
  Alkaline phosphatase, CED-L: 327 mg/kg bw
  Chlolesterol, CED: 38.3 mg/kg bw
  Chlolesterol, CED-L: 19.5 mg/kg bw
  Glucose, CED: 198 mg/kg bw
  Glucose, CED-L: 146 mg/kg bw
  Total protein, CED: 255 mg/kg bw
  Total protein, CED-L: 134 mg/kg bw
  Triglycerides, CED: 3.31 mg/kg bw
  Triglycerides, CED-L: 1.90 mg/kg bw
males, CES 10%
  Albumin, CED: 3040 mg/kg bw
  Albumin, CED-L: 2130 mg/kg bw
  Alkaline phosphatase, CED: 1110 mg/kg bw
  Alkaline phosphatase, CED-L: 672 mg/kg bw
  Chlolesterol, CED: 79.0 mg/kg bw
  Chlolesterol, CED-L: 40.4 mg/kg bw
  Glucose, CED: 408 mg/kg bw
  Glucose, CED-L: 300 mg/kg bw
  Total protein, CED: 702 mg/kg bw
  Total protein, CED-L: 379 mg/kg bw
  Triglycerides, CED: 6.92 mg/kg bw
  Triglycerides, CED-L: 3.97 mg/kg bw
[6]
  Serum chlolesterol, CED-L: 91400 ng/g lipid
  Serum cholesterol, CED: 177 µg/g lipid
  Serum total protein, CED: 1080 µg/g lipid
  Serum triglyceride, CED: 12.5 µg/g lipid
  Serum triglycerids, CED-L: 7260 ng/g lipid
